Assay results: patent publication US10526332B2, “Imidazo-pyrimidone compounds, and preparation method and application thereof” (Nanjing Gator Meditech Company, Ltd., priority 2015, dated 2020)

Legend:
HCT116 = assay: MTS cell proliferation test, HCT116; settings: Homo sapiens, HCT-116, 72 h, read-out: HCT116 IC50 (Mean ± SD);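 further: absorbance at 490 nm after MTS/PMS addition, survival relative to untreated cells (100%) after blank subtraction, IC50 from the concentration–survival curve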
Procedure: (§1) The disclosed compounds and their pharmaceutically accepted salts are assayed for their anti-cancer activities by the following method. • MTS Cell Proliferation Test 1. Materials 1.1. […] Cell Lines
(§2) Two cell lines were used, both HCT116 and MDA-MB-231 were purchased from USATCC.
(§3) MTS reagent powder was purchased from Promega. Cat #G1111; PMS from Sigma, Cat #P8625; cell culture medium RPMI-1640, Cat #10040562R; DMEM, Cat #0013CVR; 100× sodium pyruvate solution Cat #136007; 100× Penicillin Streptomycin Solution, Cat ⊇15140122; 100× Penicillin Streptomycin Solution, Cat #15140122; 0.25% Trypsin (Parenzyme), Cat #25200-072; and fetal bovine serum, Cat #16000-044 were all purchased from Life Technologies.
(§4) • Thermo incubator (Format 371); • Heat force Biosafety Cabinet (HF sage 1500); • BioTek Microplate Reader (Synergy 2). 2. […] 2.3 Procedure of MTS Methods:
(§5) Cells at logarithmic phase were harvested, then digested with 0.25% trypsin, and re-suspense in complete growth medium. 150 uL/well of HCT-116 and MDA-MB-231 were dispensed into 96 well culture plates with 2.5×10^3 cell/well. The plates were pre-incubated in a humidified CO2 incubator at 37° C., 5% CO2) for 24 hours. 50 uL of various concentration of test compounds and reference compound were added. A negative control (only cells and culture medium without compound) and blank control (only culture medium without cells) were set at the same time. The plates were incubated for 72 hr in the incubator. The MTS/PMS solution was prepared and added into 96 well plates according to the test instruction by Promega Corporation. The plates were incubated again for some time, then the absorbance at 490 nm were measured using Biotek Instruments, Inc microplate reader and the cell survival rates calculated. Cell Survival Rate(%)=(At−Ab)/(Ac−Ab)×100% where, • At=Absorbance value of test compound • Ab=Absorbance value of blank • Ac=Absorbance value of control 3. Results

MDA-MB-231 = assay: MTS cell proliferation test, MDA-MB-231; settings: Homo sapiens, MDA-MB-231, 72 h, read-out: MDA231 IC50 (Mean ± SD);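 further: cells settled 24 h before compound addition, MTS absorbance at 490 nm, survival as percent of untreated cells after blank subtraction, IC50 fitted from survival versus concentration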
Procedure: as §1, §2, §3, §4, §5

Row | IC50 (HCT116) [nM] | IC50 (MDA-MB-231) [nM] | SMILES
1 | 1500 ± 394 | 2080 ± 67 | O=C1C2=C(CCN(Cc3ccccc3Cl)C2)N2CCN=C2N1Cc1ccccc1Br [Compound I-26, 4-(2-bromobenzyl)-7-(2-chlorobenzyl)-1,2,6,7,8,9-hexahydroimidazo[1,2-a]pyrido[3,4-e]pyrimidin-5(4H)-one]
2 | 1950 ± 64 | 1310 ± 154 | O=C1C2=C(CCN(Cc3ccccc3Cl)C2)N2CCN=C2N1Cc1ccccc1Cl [Compound I-25, 4,7-bis(2-chlorobenzyl)-1,2,6,7,8,9-hexahydroimidazo[1,2-a]pyrido[3,4-e]pyrimidin-5(4H)-one]
3 | 1990 ± 41 | 2180 ± 20 | O=C1C2=C(CCN(Cc3ccccc3F)C2)N2CCN=C2N1Cc1ccccc1F [Compound I-11, 4,7-bis(2-fluorobenzyl)-1,2,6,7,8,9-hexahydroimidazo[1,2-a]pyrido[3,4-e]pyrimidin-5(4H)-one]
4 | 2160 ± 13 | 3070 ± 752 | O=C1C2=C(CCN(Cc3ccccc3Br)C2)N2CCN=C2N1Cc1ccccc1F [Compound I-16, 7-(2-bromobenzyl)-4-(2-fluorobenzyl)-1,2,6,7,8,9-hexahydroimidazo[1,2-a]pyrido[3,4-e]pyrimidin-5(4H)-one]
5 | 1450 ± 155 | 2080 ± 24 | O=C1C2=C(CCN(Cc3ccccc3F)C2)N2CCN=C2N1Cc1ccccc1Br [Compound I-14, 4-(2-bromobenzyl)-7-(2-fluorobenzyl)-1,2,6,7,8,9-hexahydroimidazo[1,2-a]pyrido[3,4-e]pyrimidin-5(4H)-one]
6 | 2120 ± 39 | 2150 ± 34 | Cc1ccccc1CN1CCC2=C(C1)C(=O)N(Cc1ccccc1F)C1=NCCN12 [Compound I-21, 4-(2-fluorobenzyl)-7-(2-methylbenzyl)-1,2,6,7,8,9-hexahydroimidazo[1,2-a]pyrido[3,4-e]pyrimidin-5(4H)-one]

The next lines start with the molecule.

Row | SMILES | IC50 (HCT116) [nM] | IC50 (MDA-MB-231) [nM]
7 | Cc1ccccc1CN1C(=O)C2=C(CCN(Cc3cccc(Br)c3)C2)N2CCN=C12 [Compound I-29, 7-(3-bromobenzyl)-4-(2-methylbenzyl)-1,2,6,7,8,9-hexahydroimidazo[1,2-a]pyrido[3,4-e]pyrimidin-5(4H)-one] | 720 ± 1 | 740 ± 2
8 | Cc1ccccc1CN1C(=O)C2=C(CCN(Cc3ccc(N4CCOCC4)cc3)C2)N2CCN=C12 [Compound I-8, 4-(2-methylbenzyl)-7-(4-morpholinobenzyl)-1,2,6,7,8,9-hexahydroimidazo[1,2-a]pyrido[3,4-e]pyrimidin-5(4H)-one] | 1770 ± 230 | 1820 ± 241
9 | Cc1ccccc1CN1C(=O)C2=C(CCN(Cc3ccc(N4CCN(C)CC4)cc3)C2)N2CCN=C12 [Compound I-10, 4-(2-methylbenzyl)-7-(4-(4-methylpiperazin-1-yl)benzyl)-1,2,6,7,8,9-hexahydroimidazo[1,2-a]pyrido[3,4-e]pyrimidin-5(4H)-one] | 2090 ± 16 | 2190 ± 27
10 | O=C1C2=C(CCN(Cc3ccccc3)C2)N2CCN=C2N1Cc1ccccc1Br [Compound I-5, 7-benzyl-4-(2-bromobenzyl)-1,2,6,7,8,9-hexahydroimidazo[1,2-a]pyrido[3,4-e]pyrimidin-5(4H)-one] | 5960 ± 1350 | 6810 ± 57
11 | Cc1ccccc1CN1C(=O)C2=C(CCN(Cc3ccc(C(F)(F)F)cc3)C2)N2CCN=C12 [Compound I-6, 4-(2-methylbenzyl)-7-(4-(trifluoromethyl)benzyl)-1,2,6,7,8,9-hexahydroimidazo[1,2-a]pyrido[3,4-e]pyrimidin-5(4H)-one] | 4160 ± 1510 | 4450 ± 356
12 | Cc1cccc(CN2CCC3=C(C2)C(=O)N(Cc2ccccc2C(F)(F)F)C2=NCCN23)c1 [Compound I-31, 7-(3-methylbenzyl)-4-(2-(trifluoromethyl)benzyl)-1,2,6,7,8,9-hexahydroimidazo[1,2-a]pyrido[3,4-e]pyrimidin-5(4H)-one] | 1250 ± 122 | 1650 ± 50
13 | O=C1C2=C(CCN(Cc3cccc(Br)c3)C2)N2CCN=C2N1Cc1ccccc1C(F)(F)F [Compound I-54, 7-(3-bromobenzyl)-4-(2-(trifluoromethyl)benzyl)-1,2,6,7,8,9-hexahydroimidazo[1,2-a]pyrido[3,4-e]pyrimidin-5(4H)-one] | 21410 ± 34 | 24800 ± 2580
